# Experimental data as given in ChEMBL document CHEMBL3045546, “Synthesis and antimicrobial screening of 4-thiazolidinone and 2-azetidinone derivatives of piperazine” (2013).
# Experiments:
# Assay type in all cases: functional
# Aspergillus awamori = assay: Antimicrobial activity against Aspergillus awamori ATCC 22342 assessed as growth inhibition by broth dilution method
# Aspergillus flavus = assay: Antimicrobial activity against Aspergillus flavus ATCC 15517 assessed as growth inhibition by broth dilution method
# Bacillus subtilis = assay: Antimicrobial activity against Bacillus subtilis ATCC 6633 assessed as growth inhibition by broth dilution method
# Bacillus cereus = assay: Antimicrobial activity against Bacillus cereus ATCC 11778 assessed as growth inhibition by broth dilution method
# Salmonella typhi = assay: Antimicrobial activity against Salmonella enterica subsp. enterica serovar Typhi ATCC 19430 assessed as growth inhibition by broth dilution method
# Rhizoctonia solani = assay: Antimicrobial activity against Rhizoctonia solani ATCC 76131 assessed as growth inhibition by broth dilution method
# Aspergillus niger = assay: Antimicrobial activity against Aspergillus niger ATCC 9142 assessed as growth inhibition by broth dilution method
# Micrococcus luteus = assay: Antimicrobial activity against Micrococcus luteus ATCC 4698 assessed as growth inhibition by broth dilution method
# Microsporum canis = assay: Antimicrobial activity against Arthroderma otae ATCC 11622 assessed as growth inhibition by broth dilution method
# Fusarium solani = assay: Antimicrobial activity against Fusarium solani ATCC 38136 assessed as growth inhibition by broth dilution method
# Bacillus pumilus = assay: Antimicrobial activity against Bacillus pumilus ATCC 14884 assessed as growth inhibition by broth dilution method
# Klebsiella pneumoniae = assay: Antimicrobial activity against Klebsiella pneumoniae ATCC 13883 assessed as growth inhibition by broth dilution method
# Trichophyton longifusum = assay: Antimicrobial activity against Trichophyton longifusum ATCC 22397 assessed as growth inhibition by broth dilution method
# Proteus mirabilis = assay: Antimicrobial activity against Proteus mirabilis ATCC 49565 assessed as growth inhibition by broth dilution method
# Staphylococcus hominis = assay: Antimicrobial activity against Staphylococcus hominis ATCC 27844 assessed as growth inhibition by broth dilution method
# Pseudomonas aeruginosa = assay: Antimicrobial activity against Pseudomonas aeruginosa ATCC 10145 assessed as growth inhibition by broth dilution method
# Aspergillus fumigatus = assay: Antimicrobial activity against Aspergillus fumigatus assessed as growth inhibition by broth dilution method
# Proteus vulgaris = assay: Antimicrobial activity against Proteus vulgaris ATCC 13315 assessed as growth inhibition by broth dilution method
# Alternaria alternata = assay: Antimicrobial activity against Alternaria alternata ATCC 66868 assessed as growth inhibition by broth dilution method
# Staphylococcus aureus = assay: Antimicrobial activity against Staphylococcus aureus ATCC 25923 assessed as growth inhibition by broth dilution method
# [1] = test system: Staphylococcus epidermidis; assay: Antimicrobial activity against Staphylococcus epidermidis ATCC 12228 assessed as growth inhibition by broth dilution method
# Candida albicans = assay: Antimicrobial activity against Candida albicans ATCC 10231 assessed as growth inhibition by broth dilution method
# Trichoderma viride = assay: Antimicrobial activity against Hypocrea rufa ATCC 52440 assessed as growth inhibition by broth dilution method
# Escherichia coli = assay: Antimicrobial activity against Escherichia coli ATCC 25922 assessed as growth inhibition by broth dilution method
Structure (SMILES),MIC (Aspergillus awamori) [µg/mL],MIC (Aspergillus flavus) [µg/mL],MIC (Bacillus subtilis) [µg/mL],MIC (Bacillus cereus) [µg/mL],MIC (Salmonella typhi) [µg/mL],MIC (Rhizoctonia solani) [µg/mL],MIC (Aspergillus niger) [µg/mL],MIC (Micrococcus luteus) [µg/mL],MIC (Microsporum canis) [µg/mL],MIC (Fusarium solani) [µg/mL],MIC (Bacillus pumilus) [µg/mL],MIC (Klebsiella pneumoniae) [µg/mL],MIC (Trichophyton longifusum) [µg/mL],MIC (Proteus mirabilis) [µg/mL],MIC (Staphylococcus hominis) [µg/mL],MIC (Pseudomonas aeruginosa) [µg/mL],MIC (Aspergillus fumigatus) [µg/mL],MIC (Proteus vulgaris) [µg/mL],MIC (Alternaria alternata) [µg/mL],MIC (Staphylococcus aureus) [µg/mL],further results
O=C1CSC(c2ccco2)N1CCN1CCNCC1 (stereo not drawn),150,150,75,150,75,150,300,75,300,300,150,150,300,150,75,75,150,150,300,150,MIC [1]: 300 µg/mL; MIC (Candida albicans): 300 µg/mL; MIC (Trichoderma viride): 150 µg/mL; MIC (Escherichia coli): 75 µg/mL
COc1ccc(C2C(Cl)C(=O)N2CCN2CCN(C(=O)CCl)CC2)cc1O (stereo not drawn),18.8,18.8,4.68,9.37,4.68,18.8,18.8,4.68,18.8,18.8,9.37,9.37,9.73,9.37,9.37,9.37,18.8,9.37,9.73,9.37,MIC [1]: 9.37 µg/mL; MIC (Candida albicans): 18.8 µg/mL; MIC (Trichoderma viride): 18.8 µg/mL; MIC (Escherichia coli): 9.37 µg/mL
O=C(CCl)N1CCN(CCN2C(=O)C(Cl)C2c2ccccc2O)CC1 (stereo not drawn),300,300,150,150,75,300,300,75,300,300,75,150,300,75,150,75,300,75,300,75,MIC [1]: 150 µg/mL; MIC (Candida albicans): 300 µg/mL; MIC (Trichoderma viride): 300 µg/mL; MIC (Escherichia coli): 150 µg/mL
O=C1CSC(c2ccc(O)cc2)N1CCN1CCNCC1 (stereo not drawn),18.8,18.8,4.68,9.37,9.37,18.8,18.8,9.37,18.8,9.73,9.37,9.37,9.73,9.37,9.37,9.37,9.37,4.68,18.8,9.37,MIC [1]: 9.37 µg/mL; MIC (Candida albicans): 9.73 µg/mL; MIC (Trichoderma viride): 18.8 µg/mL; MIC (Escherichia coli): 4.68 µg/mL
O=C1CSC(c2ccccc2)N1CCN1CCNCC1 (stereo not drawn),75,75,37.5,37.5,18.8,37.5,75,75,37.5,37.5,75,37.5,75,37.5,37.5,37.5,37.5,18.8,75,37.5,MIC [1]: 75 µg/mL; MIC (Candida albicans): 37.5 µg/mL; MIC (Trichoderma viride): 75 µg/mL; MIC (Escherichia coli): 37.5 µg/mL
COc1cc(C2SCC(=O)N2CCN2CCNCC2)ccc1O (stereo not drawn),9.73,18.8,9.37,9.37,9.37,18.8,9.73,4.68,18.8,9.73,9.37,9.37,9.73,9.37,9.37,9.37,18.8,9.37,9.73,9.37,MIC [1]: 9.37 µg/mL; MIC (Candida albicans): 18.8 µg/mL; MIC (Trichoderma viride): 18.8 µg/mL; MIC (Escherichia coli): 9.37 µg/mL
COc1ccc(C2SCC(=O)N2CCN2CCNCC2)cc1 (stereo not drawn),9.73,18.8,9.37,4.68,4.68,9.73,18.8,9.37,18.8,18.8,9.37,9.37,18.8,9.37,4.68,9.37,9.73,9.37,18.8,9.37,MIC [1]: 9.37 µg/mL; MIC (Candida albicans): 9.73 µg/mL; MIC (Trichoderma viride): 9.73 µg/mL; MIC (Escherichia coli): 9.37 µg/mL
